Laboratory results: PubChem BioAssay AID1745844 (Carcinogenic Potency Database (CPDB), 2022)
Where “and” joins values, the source holds several entries; their conditions need not be identical. Equal values may be shown once. Calls of active or inactive are those of the source. The rule behind the calls is not given here.

Test system: rodent lifetime carcinogenesis bioassay, tumor incidence TD50
Assay: carcinogenic potency in animals, long-term in vivo studies, CPDB compilation (AID 1745844)

O=c1ccc2ccccc2o1 was tested, and the TD50 (hamster, strain Syrian Golden, females, in feed, site: any site (literature study), lesion: several types, types named in the paper, dosed 95 weeks, study length 104 weeks) was 5520 mg/kg/day (inactive), the carcinogen call (hamster, strain Syrian Golden, females, in feed, site: liver, lesion: one or several types, types not named, dosed 95 weeks, study length 104 weeks) was “negative (inactive)” and the TD50 (hamster, strain Syrian Golden, males, in feed, site: any site (literature study), lesion: several types, types named in the paper, dosed 104 weeks, study length 104 weeks) was 603 mg/kg/day (inactive). For the same molecule, the carcinogen call (hamster, strain Syrian Golden, males, in feed, site: liver, lesion: one or several types, types not named, dosed 104 weeks, study length 104 weeks) was “negative (inactive)”, the TD50 (mouse, strain B6C3F1, females, by gavage, site: any site (literature study), lesion: several types, types named in the paper, dosed 103 weeks, study length 104 weeks) was 198 mg/kg/day and the TD50 (mouse, strain B6C3F1, females, by gavage, site: forestomach, lesion: squamous-cell carcinoma + squamous-cell papilloma, dosed 103 weeks, study length 104 weeks) was 42000 mg/kg/day. It also gave a TD50 (mouse, strain B6C3F1, females, by gavage, site: forestomach, lesion: squamous-cell papilloma, dosed 103 weeks, study length 104 weeks) of 12200 mg/kg/day, a TD50 (mouse, strain B6C3F1, females, by gavage, site: liver + lung, lesion: hepatocellular adenoma + hepatocellular carcinoma + alveolar/bronchiolar adenoma + alveolar/bronchiolar carcinoma, dosed 103 weeks, study length 104 weeks) of 85.5 mg/kg/day and a TD50 (mouse, strain B6C3F1, females, by gavage, site: liver, lesion: hepatocellular adenoma + hepatoblastoma + hepatocellular carcinoma, dosed 103 weeks, study length 104 weeks) of 65.7 mg/kg/day. It also gave a TD50 (mouse, strain B6C3F1, females, by gavage, site: liver, lesion: hepatocellular adenoma + hepatocellular carcinoma, dosed 103 weeks, study length 104 weeks) of 65.7 mg/kg/day, a TD50 (mouse, strain B6C3F1, females, by gavage, site: liver, lesion: hepatocellular adenoma, dosed 103 weeks, study length 104 weeks) of 72.8 mg/kg/day and a TD50 (mouse, strain B6C3F1, females, by gavage, site: lung, lesion: alveolar/bronchiolar adenoma + alveolar/bronchiolar carcinoma, dosed 103 weeks, study length 104 weeks) of 135 mg/kg/day. It also gave a TD50 (mouse, strain B6C3F1, females, by gavage, site: lung, lesion: alveolar/bronchiolar adenoma, dosed 103 weeks, study length 104 weeks) of 179 mg/kg/day, a TD50 (mouse, strain B6C3F1, females, by gavage, site: lung, lesion: alveolar/bronchiolar carcinoma, dosed 103 weeks, study length 104 weeks) of 825 mg/kg/day and a TD50 (mouse, strain B6C3F1, males, by gavage, site: all sites, lesion: histiocytic sarcoma + malignant lymphoma, histiocytic type + malignant lymphoma, mixed type + malignant lymphoma, lymphocytic, dosed 103 weeks, study length 104 weeks) of 600 mg/kg/day. The TD50 (mouse, strain B6C3F1, males, by gavage, site: any site (literature study), lesion: several types, types named in the paper, dosed 103 weeks, study length 104 weeks) was 461 mg/kg/day, the TD50 (mouse, strain B6C3F1, males, by gavage, site: forestomach, lesion: squamous-cell carcinoma + squamous-cell papilloma, dosed 103 weeks, study length 104 weeks) was 152 mg/kg/day and the TD50 (mouse, strain B6C3F1, males, by gavage, site: forestomach, lesion: squamous-cell papilloma, dosed 103 weeks, study length 104 weeks) was 179 mg/kg/day. The TD50 (mouse, strain B6C3F1, males, by gavage, site: liver, lesion: hepatoblastoma, dosed 103 weeks, study length 104 weeks) was 632 mg/kg/day, the TD50 (mouse, strain B6C3F1, males, by gavage, site: lung, lesion: alveolar/bronchiolar adenoma + alveolar/bronchiolar carcinoma, dosed 103 weeks, study length 104 weeks) was 241 mg/kg/day and the TD50 (mouse, strain B6C3F1, males, by gavage, site: lung, lesion: alveolar/bronchiolar adenoma, dosed 103 weeks, study length 104 weeks) was 265 mg/kg/day. For the same molecule, the TD50 (mouse, strain B6C3F1, males, by gavage, site: pancreatic islets, lesion: islet-cell adenoma, dosed 103 weeks, study length 104 weeks) was 1310 mg/kg/day, the TD50 (mouse, strain Charles River CD1, females, in feed, site: liver, lesion: several types, types named in the paper, dosed 109 weeks, study length 109 weeks) was 176 mg/kg/day (inactive) and the TD50 (mouse, strain Charles River CD1, females, in feed, site: lung, lesion: adenocarcinoma, dosed 109 weeks, study length 109 weeks) was 3140 mg/kg/day (inactive). For the same molecule, the TD50 (mouse, strain Charles River CD1, females, in feed, site: lung, lesion: adenoma, dosed 109 weeks, study length 109 weeks) was 4500 mg/kg/day (inactive), the carcinogen call (mouse, strain Charles River CD1, males, in feed, site: liver, lesion: several types, types named in the paper, dosed 101 weeks, study length 101 weeks) was “negative (inactive)” and the TD50 (mouse, strain Charles River CD1, males, in feed, site: lung, lesion: adenocarcinoma, dosed 101 weeks, study length 101 weeks) was 1020 mg/kg/day (inactive). For the same molecule, the carcinogen call (mouse, strain Charles River CD1, males, in feed, site: lung, lesion: adenoma, dosed 101 weeks, study length 101 weeks) was “negative (inactive)”, the TD50 (rat, strain Fischer 344, females, by gavage, site: any site (literature study), lesion: several types, types named in the paper, dosed 103 weeks, study length 104 weeks) was 456 mg/kg/day and the TD50 (rat, strain Fischer 344, females, by gavage, site: kidney, lesion: tubule adenoma, dosed 103 weeks, study length 104 weeks) was 1410 mg/kg/day and 930 mg/kg/day. It also gave a TD50 (rat, strain Fischer 344, males, by gavage, site: any site (literature study), lesion: several types, types named in the paper, dosed 39 weeks, study length 104 weeks) of 210 mg/kg/day, a TD50 (rat, strain Fischer 344, males, by gavage, site: any site (literature study), lesion: several types, types named in the paper, dosed 65 weeks, study length 104 weeks) of 12.2 mg/kg/day and a TD50 (rat, strain Fischer 344, males, by gavage, site: any site (literature study), lesion: several types, types named in the paper, dosed 101 weeks, study length 104 weeks) of 12 mg/kg/day. The TD50 (rat, strain Fischer 344, males, by gavage, site: forestomach, lesion: squamous-cell papilloma, dosed 101 weeks, study length 104 weeks) was 142 mg/kg/day, the TD50 (rat, strain Fischer 344, males, by gavage, site: kidney, lesion: adenoma + tubule adenoma + tubule carcinoma, dosed 101 weeks, study length 104 weeks) was 13.9 mg/kg/day and the TD50 (rat, strain Fischer 344, males, by gavage, site: kidney, lesion: adenoma + tubule adenoma, dosed 101 weeks, study length 104 weeks) was 226 mg/kg/day and 13.9 mg/kg/day. The TD50 (rat, strain Fischer 344, males, by gavage, site: kidney, lesion: tubule adenoma, dosed 65 weeks, study length 104 weeks) was 67.6 mg/kg/day, the TD50 (rat, strain Fischer 344, males, by gavage, site: kidney, lesion: tubule carcinoma, dosed 101 weeks, study length 104 weeks) was 151 mg/kg/day and the TD50 (rat, strain Fischer 344, males, by gavage, site: liver, lesion: hepatocellular adenoma + hepatoblastoma + hepatocellular carcinoma, dosed 65 weeks, study length 104 weeks) was 171 mg/kg/day. It also gave a TD50 (rat, strain Fischer 344, males, by gavage, site: pituitary gland, lesion: pars distalis adenoma, dosed 101 weeks, study length 104 weeks) of 19.7 mg/kg/day, a TD50 (rat, strain Fischer 344, males, by gavage, site: testis, lesion: interstitial-cell adenoma, dosed 39 weeks, study length 104 weeks) of 19.8 mg/kg/day and a TD50 (rat, strain Fischer 344, males, by gavage, site: testis, lesion: interstitial-cell adenoma, dosed 65 weeks, study length 104 weeks) of 8.22 mg/kg/day. For the same molecule, the TD50 (rat, strain Fischer 344, males, by gavage, site: testis, lesion: interstitial-cell adenoma, dosed 101 weeks, study length 104 weeks) was 3.62 mg/kg/day, the TD50 (rat, strain Sprague-Dawley, females, in feed, site: liver, lesion: cholangiocarcinoma, dosed 110 weeks, study length 110 weeks) was 767 mg/kg/day and the TD50 (rat, strain Sprague-Dawley, females, in feed, site: liver, lesion: several types, types named in the paper, dosed 110 weeks, study length 110 weeks) was 1440 mg/kg/day. For the same molecule, the TD50 (rat, strain Sprague-Dawley, males, in feed, site: liver, lesion: cholangiocarcinoma, dosed 104 weeks, study length 104 weeks) was 302 mg/kg/day and the TD50 (rat, strain Sprague-Dawley, males, in feed, site: liver, lesion: several types, types named in the paper, dosed 104 weeks, study length 104 weeks) was 365 mg/kg/day.

Work on NC(=O)N(CC(=O)O)N=O yielded a TD50 (rat, strain Donryu, females, in drinking water, site: any site (literature study), lesion: several types, types named in the paper, dosed 68 weeks, study length 68 weeks) of 1.38 mg/kg/day, a TD50 (rat, strain Donryu, females, in drinking water, site: intestine, lesion: several types, types named in the paper, dosed 68 weeks, study length 68 weeks) of 5.37 mg/kg/day and a TD50 (rat, strain Donryu, females, in drinking water, site: mammary gland, lesion: fibroadenoma, dosed 68 weeks, study length 68 weeks) of 2.92 mg/kg/day. For the same molecule, the TD50 (rat, strain Donryu, females, in drinking water, site: mammary gland, lesion: several types, types named in the paper, dosed 68 weeks, study length 68 weeks) was 2.3 mg/kg/day, the TD50 (rat, strain Donryu, females, in drinking water, site: small intestine, lesion: adenocarcinoma, dosed 68 weeks, study length 68 weeks) was 11.6 mg/kg/day and the TD50 (rat, strain Donryu, females, in drinking water, site: small intestine, lesion: adenoma, dosed 68 weeks, study length 68 weeks) was 8.09 mg/kg/day. It also gave a TD50 (rat, strain MRC-Wistar, males, in drinking water, site: any site (literature study), lesion: several types, types named in the paper, dosed 74 weeks, study length 130 weeks) of 13.1 mg/kg/day and a TD50 (rat, strain MRC-Wistar, males, in drinking water, site: epidermis, lesion: several types, types named in the paper, dosed 74 weeks, study length 130 weeks) of 34.8 mg/kg/day.
